By EC50 is commonly meant the midpoint of the concentration-response curve. Lower therefore signals a more potent agent. A word on the CC50: it is the concentration that lowers cell viability or growth by half. A lower CC50 goes with harm at low concentration. As a reminder, the IC50 is the midpoint of a concentration-inhibition curve.

One data set concerns HIV-1RF. Nature of the data set: XTT cytoprotection assay, HIV-1RF infection in CEM-SS cells. The class given is cell-based. Particulars: for SI (CC50/EC50) CEM-SS cells: CC50/EC50 ratio, HIV-1RF in CEM-SS cells; for EC50: Human immunodeficiency virus 1, inhibition of cytopathicity of HIV-1RF in CEM-SS cells. Here is the method: (§1) In Vitro Antiviral Assay. Evaluation of the antiviral activity of compounds against HIV- 1RF infection in CEM-SS cells was performed using the XTT cytoprotection assay, as previously described (Buckheit, R. W. Jr., et al., Antiviral Res. 1995, 26, 117-132). Evaluation of the antiviral activity of compounds against HIV-1IIIB and HIV-2ROD in MT-4 cells was performed using the MTT assay, as previously described (Rice, W. G. and Bader, J. P., Adv. Pharmacol. (San Diego) 1995, 33, 389-438).
In general terms: Formazan colour is commonly taken as a measure of viable cells.

Data set [1] can be described thus: Cytotoxicity for mock-infected MT-4 cells. The class given is cell-based. Particulars: human. Here is the method:
as §1
(§2) Biological Results. The antiviral activities of the ADAMs were evaluated by determining their ability to inhibit the enzymatic activity of HIV-1 RT in vitro (IC50) and protect HIV-infected cells from the cytopathic effects (EC50) of two viral strains (HIV-1RF and HIV-1IIIB). The cytotoxicities (CC50) of the ADAMs were determined on CEM-SS cells and MT-4 cells.

Data set [2] can be described thus: Cytotoxicity for mock-infected CEM-SS cells. The class given is cell-based. Particulars: human. Here is the method: as §1, §2
In the next data set the test system is HIV-1IIIB. Nature of the data set: MTT assay, HIV-1IIIB in MT-4 cells. In kind it is cell-based. Particulars: for SI (CC50/EC50) MT-4 cells: CC50/EC50 ratio, HIV-1IIIB in MT-4 cells; for EC50: Human immunodeficiency virus 1, MT4, inhibition of cytopathicity of HIV-1IIIB in MT-4 cells. Here is the method:
as §1

Data set [3] has as its target HIV-1 reverse transcriptase (Human immunodeficiency virus type 1 group M subtype B, UniProt P04585). The experiment in a line: RT inhibition assay, incorporation of [32P]GTP into poly(rC)/oligo(dG) template primer. The class given is biochemical. Particulars: poly(rC):oligo(dG) as the template primer; mean of at least two experiments; read-out: IC50 inhibitory activity versus HIV-1 reverse transcriptase. Here is the method:
RT Inhibition Assay. Inhibition of purified recombinant reverse transcriptase was measured by the incorporation of [^32P]GTP into poly(rC)/oligo(dG) homopolymer template primers, as previously described (Cushman, M., et al., J. Med. Chem. 1996, 39, 3217-3227).

For `CON=C(Cl)c1cc(/C(=C\CCCc2nc(C)no2)c2cc(C)c3onc(OC)c3c2)cc(C)c1OC` [ADAM 20, N,2-Dimethoxy-5-[(1Z)-1-(3-methoxy-7-methyl-1,2-benzoxazol-5-yl)-5-(3-methyl-1,2,4-oxadiazol-5-yl)pent-1-en-1-yl]-3-methylbenzenecarboximidoyl Chloride], in the data set with HIV-1RF, the “SI (CC50/EC50) CEM-SS cells” value turned out to be 7 and the response was half-maximal at 1.7 µM (EC50). The molecule also yielded a 50% cytotoxic concentration (CC50) in data set [1] of 21.2 µM. Also, the midpoint of cytotoxicity in data set [2], the CC50, lay at 11.4 µM. In the data set on HIV-1IIIB, the “SI (CC50/EC50) MT-4 cells” value is given as 5 and it took 4.21 µM to reach a half-maximal effect (EC50). For the same molecule, in data set [3], the IC50 came out at 8.03 µM.
`CON=C(Cl)c1cc(/C(=C\CCCc2nnc(C)o2)c2cccc(C#N)c2)cc(C)c1OC` [ADAM 21, 5-[(1Z)-1-(3-Cyanophenyl)-5-(5-methyl-1,3,4-oxadiazol-2-yl)pent-1-en-1-yl]-N,2-dimethoxy-3-methylbenzenecarboximidoyl Chloride]: in the data set with HIV-1RF, the “SI (CC50/EC50) CEM-SS cells” value is listed as 2 and a half-maximal response (EC50) required 5.8 µM. The CC50 in data set [1] amounted to 22.3 µM. In data set [2], the CC50 was 13.2 µM. Besides, in the data set on HIV-1IIIB, the “SI (CC50/EC50) MT-4 cells” value is on record as 6 and the EC50 was 2.66 µM. For the same molecule, in data set [3], the IC50 stood at 33.3 µM.
Take `CON=C(Cl)c1cc(/C(=C\CCCc2nc(C)no2)c2cccc(C#N)c2)cc(C)c1OC` [ADAM 22, 5-[(1Z)-1-(3-Cyanophenyl)-5-(3-methyl-1,2,4-oxadiazol-5-yl)pent-1-en-1-yl]-N,2-dimethoxy-3-methylbenzenecarboximidoyl Chloride]: in the data set on HIV-1RF, the “SI (CC50/EC50) CEM-SS cells” value is recorded as 7 and the half-maximal effective concentration (EC50) was found to be 3.5 µM. For the same molecule, it took 110 µM to reach half-maximal cytotoxicity in data set [1] (CC50). Moreover, the half-maximal cytotoxic concentration (CC50) in data set [2] was 25.5 µM. Moreover, in the data set with HIV-1IIIB, the “SI (CC50/EC50) MT-4 cells” value was 41 and a half-maximal effect (EC50) was put at 2.69 µM. In data set [3], the IC50 is above 100 µM.
In the case of `CON=C(Cl)c1cc(/C(=C\CCCc2nnc(C)o2)c2ccc(C#N)cc2)cc(C)c1OC` [ADAM 23, 5-[(1Z)-1-(4-Cyanophenyl)-5-(5-methyl-1,3,4-oxadiazol-2-yl)pent-1-en-1-yl]-N,2-dimethoxy-3-methylbenzenecarboximidoyl Chloride], in the data set on HIV-1RF, the “SI (CC50/EC50) CEM-SS cells” value is given as 7 and the EC50 came to 2.6 µM. The molecule further gave a CC50 in data set [1] of 30.2 µM. In data set [2], it took 18.1 µM to reach half-maximal cytotoxicity (CC50). In addition, in the data set on HIV-1IIIB, the “SI (CC50/EC50) MT-4 cells” value is on record as 8 and the EC50 stood at 3.64 µM. The half-inhibitory concentration (IC50) in data set [3] amounted to 32.5 µM.
Consider `CON=C(Cl)c1cc(/C(=C\CCCc2nc(C)no2)c2ccc(C#N)cc2)cc(C)c1OC` [ADAM 24, 5-[(1Z)-1-(4-Cyanophenyl)-5-(3-methyl-1,2,4-oxadiazol-5-yl)pent-1-en-1-yl]-N,2-dimethoxy-3-methylbenzenecarboximidoyl Chloride], for which, in the data set on HIV-1RF, the “SI (CC50/EC50) CEM-SS cells” value is 7 and the response was half-maximal at 2.52 µM (EC50). In data set [1], this molecule showed a cytotoxic concentration (CC50) of 97.5 µM. The molecule also registered a CC50 in data set [2] of 16.9 µM. Besides, in the data set with HIV-1IIIB, the “SI (CC50/EC50) MT-4 cells” value was found to be 35 and the EC50 was 2.75 µM. Also, the 50% inhibitory concentration (IC50) in data set [3] amounted to 0.1 µM.
`CON=C(Cl)c1cc(/C(=C\CCCN2CCOC2=O)c2ccc(C#N)cc2)cc(C)c1OC` [ADAM 25, 5-[(1Z)-1-(4-Cyanophenyl)-5-(2-oxo-1,3-oxazolidin-3-yl)pent-1-en-1-yl]-N,2-dimethoxy-3-methylbenzenecarboximidoyl Chloride]: the EC50 in the data set on HIV-1RF is above 100 µM; with HIV-1IIIB it was above 6.48 µM. In addition, the 50% cytotoxic concentration (CC50) in data set [1] and in data set [2] was 6.48 µM in each case. Besides, the IC50 in data set [3] came to 42.1 µM.
Take `CO/N=C(\Cl)CCC/C=C(\c1cc(C)c(OC)c(C(=O)SC)c1)c1cc(C)c2oc(=O)n(C)c2c1` [ADAM 26, S-Methyl 5-[(1E,6Z)-6-Chloro-1-(3,7-dimethyl-2-oxo-2,3-dihydro-1,3-benzoxazol-5-yl)-6-(methoxyimino)hex-1-en-1-yl]-2-methoxy-3-methylbenzenecarbothioate]: in the data set with HIV-1RF, the “SI (CC50/EC50) CEM-SS cells” value is above 23 and the EC50 was below 0.32 µM. This molecule also displayed a CC50 in data set [1] of 59 µM. The molecule further had a CC50 in data set [2] of 7.45 µM. Further, in the data set with HIV-1IIIB, the “SI (CC50/EC50) MT-4 cells” value was 109 and the midpoint of the response, the EC50, lay at 0.54 µM. For the same molecule, the IC50 in data set [3] is 3.4 µM.
`CO/N=C(\Cl)CCC/C=C(\c1cc(C)c(OC)c(C(=O)SC)c1)c1cc(C)c2onc(OC)c2c1` [ADAM 27, S-Methyl 5-[(1Z,6Z)-6-Chloro-6-(methoxyimino)-1-(3-methoxy-7-methyl-1,2-benzoxazol-5-yl)hex-1-en-1-yl]-2-methoxy-3-methylbenzenecarbothioate]: in the data set on HIV-1RF, the “SI (CC50/EC50) CEM-SS cells” value amounted to 3 and a half-maximal response (EC50) required 2.42 µM. Moreover, in data set [1], half-maximal cytotoxicity (CC50) was put at 16.3 µM. In addition, half-maximal cytotoxicity in data set [2] (CC50) was put at 7.2 µM. Besides, in the data set on HIV-1IIIB, the “SI (CC50/EC50) MT-4 cells” value amounted to 5 and the EC50 worked out at 3.27 µM. The concentration for half-maximal inhibition (IC50) in data set [3] came out at 36.4 µM.
With `CO/N=C(\Cl)CCC/C=C(/c1cccc(C#N)c1)c1cc(C)c(OC)c(C(=O)SC)c1` [ADAM 28, S-Methyl 5-[(1Z,6Z)-6-Chloro-1-(3-cyanophenyl)-6-(methoxyimino)hex-1-en-1-yl]-2-methoxy-3-methylbenzenecarbothioate], the “SI (CC50/EC50) CEM-SS cells” value in the data set with HIV-1RF is on record as 52. The results for the half-maximal effective concentration (EC50) in the data set on HIV-1RF and in the data set on HIV-1IIIB were 1.46 µM and 2.43 µM, respectively. Also, the figures for the CC50 in data set [1] and in data set [2] were 143 µM and 75.5 µM, respectively. For the same molecule, the “SI (CC50/EC50) MT-4 cells” value with HIV-1IIIB is on record as 59. The IC50 in data set [3] turned out to be 45.3 µM.
Take `CO/N=C(\Cl)CCC/C=C(/c1ccc(C#N)cc1)c1cc(C)c(OC)c(C(=O)SC)c1` [ADAM 29, S-Methyl 5-[(1Z,6Z)-6-Chloro-1-(4-cyanophenyl)-6-(methoxyimino)hex-1-en-1-yl]-2-methoxy-3-methylbenzenecarbothioate]: in the data set with HIV-1RF, the “SI (CC50/EC50) CEM-SS cells” value amounted to 25 and the EC50 was found to be 2.29 µM. For the same molecule, the CC50 in data set [1] came to 109 µM. The same molecule came in with a CC50 in data set [2] of 56.5 µM. Further, in the data set on HIV-1IIIB, the “SI (CC50/EC50) MT-4 cells” value is recorded as 33 and the 50% effective concentration (EC50) was found to be 3.26 µM. Also, the IC50 in data set [3] is 12 µM.

These data come from US20170267667A1, “[…] AS NON-NUCLEOSIDE REVERSE TRANSCRIPTASE INHIBITORS FOR ANTI-HIV-1 CHEMOTHERAPY” (Purdue Research Foundation, priority 2016, published 2017).
